Reference: PubChem BioAssay (NCI)
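Test compounds were applied to cells in 96-well plates for 48 hours at 5 doses. TGI denotes the concentration required for complete inhibition of growth.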

test system: HOP-62 NSCLC; assay: DTP human tumour cell line panel, 48 h

`C(=Nc1ccc(-c2nc3ccccc3s2)cc1)c1ccco1` and `CC(=O)/C(=C/n1c(=S)sc2ccccc21)C(=O)Nc1ccccc1C` cannot be ordered by TGI: greater than 100 µM for the first, greater than 100 µM for the second.

Going from `O=C1CC(c2ccc([N+](=O)[O-])cc2)C2(C(=O)NC(=S)NC2=O)C(c2ccc([N+](=O)[O-])cc2)C1` (stereo unspecified) to `N#CSCc1cccc(Nc2cc(=O)[nH]c(=O)[nH]2)c1`, the TGI rises from 56 µM to greater than 100 µM.

test system: COLO 205 colon; assay: DTP human tumour cell line panel, 48 h

`Cc1nc2cc(C(F)(F)F)ccc2[nH]c1=O` and `CSc1c(C(=O)Nc2ccc(C)cc2)c(N)[nH]c(=O)c1C#N` cannot be ordered by TGI: greater than 100 µM for the first, greater than 100 µM for the second.

`Nc1ncnc2c1ncn2C(=O)NC12CC3CC(CC(C3)C1)C2` and `O=C1CC(c2ccc([N+](=O)[O-])cc2)C2(C(=O)NC(=S)NC2=O)C(c2ccc([N+](=O)[O-])cc2)C1` (stereo unspecified) cannot be ordered by TGI: greater than 100 µM for the first, greater than 100 µM for the second.

`C(=Nc1ccc(-c2nc3ccccc3s2)cc1)c1ccco1` and `CC(=O)/C(=C/n1c(=S)sc2ccccc21)C(=O)Nc1ccccc1C` cannot be ordered by TGI: greater than 100 µM for the first, greater than 100 µM for the second.

In the case of `N#CSCc1cccc(Nc2cc(=O)[nH]c(=O)[nH]2)c1`, the TGI is reported as greater than 100 µM.

test system: MDA-MB-231 breast; assay: DTP human tumour cell line panel, 48 h

`Cc1nc2cc(C(F)(F)F)ccc2[nH]c1=O` and `CSc1c(C(=O)Nc2ccc(C)cc2)c(N)[nH]c(=O)c1C#N` cannot be ordered by TGI: greater than 100 µM for the first, greater than 100 µM for the second.

Going from `Nc1ncnc2c1ncn2C(=O)NC12CC3CC(CC(C3)C1)C2` to `O=C1CC(c2ccc([N+](=O)[O-])cc2)C2(C(=O)NC(=S)NC2=O)C(c2ccc([N+](=O)[O-])cc2)C1` (stereo unspecified), the TGI falls from greater than 100 µM to 37.3 µM.

`CC(=O)/C(=C/n1c(=S)sc2ccccc21)C(=O)Nc1ccccc1C` and `N#CSCc1cccc(Nc2cc(=O)[nH]c(=O)[nH]2)c1` cannot be ordered by TGI: greater than 100 µM for the first, greater than 100 µM for the second.

test system: U251 CNS; assay: DTP human tumour cell line panel, 48 h

`Cc1nc2cc(C(F)(F)F)ccc2[nH]c1=O` and `CSc1c(C(=O)Nc2ccc(C)cc2)c(N)[nH]c(=O)c1C#N` cannot be ordered by TGI: greater than 100 µM for the first, greater than 100 µM for the second.

Compared with `Nc1ncnc2c1ncn2C(=O)NC12CC3CC(CC(C3)C1)C2`, `O=C1CC(c2ccc([N+](=O)[O-])cc2)C2(C(=O)NC(=S)NC2=O)C(c2ccc([N+](=O)[O-])cc2)C1` (stereo unspecified) is lower in TGI: greater than 100 µM for the first, 37 µM for the second.

`C(=Nc1ccc(-c2nc3ccccc3s2)cc1)c1ccco1` and `CC(=O)/C(=C/n1c(=S)sc2ccccc21)C(=O)Nc1ccccc1C` cannot be ordered by TGI: greater than 100 µM for the first, greater than 100 µM for the second.

`N#CSCc1cccc(Nc2cc(=O)[nH]c(=O)[nH]2)c1` gave a TGI greater than 100 µM.

test system: 786-0 renal; assay: DTP human tumour cell line panel, 48 h

`Cc1nc2cc(C(F)(F)F)ccc2[nH]c1=O` and `CSc1c(C(=O)Nc2ccc(C)cc2)c(N)[nH]c(=O)c1C#N` cannot be ordered by TGI: greater than 100 µM for the first, greater than 100 µM for the second.

First: Nc1ncnc2c1ncn2C(=O)NC12CC3CC(CC(C3)C1)C2
Second: O=C1CC(c2ccc([N+](=O)[O-])cc2)C2(C(=O)NC(=S)NC2=O)C(c2ccc([N+](=O)[O-])cc2)C1 (stereo unspecified)
The TGI of the first is higher: greater than 100 µM for the first, 87.7 µM for the second.

`C(=Nc1ccc(-c2nc3ccccc3s2)cc1)c1ccco1` and `CC(=O)/C(=C/n1c(=S)sc2ccccc21)C(=O)Nc1ccccc1C` cannot be ordered by TGI: greater than 100 µM for the first, greater than 100 µM for the second.

`N#CSCc1cccc(Nc2cc(=O)[nH]c(=O)[nH]2)c1` was tested, and the TGI was greater than 100 µM.

test system: MCF7 breast; assay: DTP human tumour cell line panel, 48 h

`Cc1nc2cc(C(F)(F)F)ccc2[nH]c1=O` and `CSc1c(C(=O)Nc2ccc(C)cc2)c(N)[nH]c(=O)c1C#N` cannot be ordered by TGI: greater than 100 µM for the first, greater than 100 µM for the second.

Going from `Nc1ncnc2c1ncn2C(=O)NC12CC3CC(CC(C3)C1)C2` to `O=C1CC(c2ccc([N+](=O)[O-])cc2)C2(C(=O)NC(=S)NC2=O)C(c2ccc([N+](=O)[O-])cc2)C1` (stereo unspecified), the TGI falls from greater than 100 µM to 43.8 µM.

Compared with `CC(=O)/C(=C/n1c(=S)sc2ccccc21)C(=O)Nc1ccccc1C`, `N#CSCc1cccc(Nc2cc(=O)[nH]c(=O)[nH]2)c1` is lower in TGI: greater than 100 µM for the first, 38.9 µM for the second.

test system: OVCAR-3 ovarian; assay: DTP human tumour cell line panel, 48 h

`Cc1nc2cc(C(F)(F)F)ccc2[nH]c1=O` and `CSc1c(C(=O)Nc2ccc(C)cc2)c(N)[nH]c(=O)c1C#N` cannot be ordered by TGI: greater than 100 µM for the first, greater than 100 µM for the second.

Compared with `Nc1ncnc2c1ncn2C(=O)NC12CC3CC(CC(C3)C1)C2`, `O=C1CC(c2ccc([N+](=O)[O-])cc2)C2(C(=O)NC(=S)NC2=O)C(c2ccc([N+](=O)[O-])cc2)C1` (stereo unspecified) is lower in TGI: greater than 100 µM for the first, 76.1 µM for the second.

`C(=Nc1ccc(-c2nc3ccccc3s2)cc1)c1ccco1` and `CC(=O)/C(=C/n1c(=S)sc2ccccc21)C(=O)Nc1ccccc1C` cannot be ordered by TGI: greater than 100 µM for the first, greater than 100 µM for the second.

`N#CSCc1cccc(Nc2cc(=O)[nH]c(=O)[nH]2)c1` showed a TGI greater than 100 µM.

test system: RPMI-8226 leukemia; assay: DTP human tumour cell line panel, 48 h

`Cc1nc2cc(C(F)(F)F)ccc2[nH]c1=O` and `CSc1c(C(=O)Nc2ccc(C)cc2)c(N)[nH]c(=O)c1C#N` cannot be ordered by TGI: greater than 100 µM for the first, greater than 100 µM for the second.

`Nc1ncnc2c1ncn2C(=O)NC12CC3CC(CC(C3)C1)C2` and `O=C1CC(c2ccc([N+](=O)[O-])cc2)C2(C(=O)NC(=S)NC2=O)C(c2ccc([N+](=O)[O-])cc2)C1` (stereo unspecified) cannot be ordered by TGI: greater than 100 µM for the first, greater than 100 µM for the second.

`C(=Nc1ccc(-c2nc3ccccc3s2)cc1)c1ccco1` and `N#CSCc1cccc(Nc2cc(=O)[nH]c(=O)[nH]2)c1` cannot be ordered by TGI: greater than 100 µM for the first, greater than 100 µM for the second.

test system: A549 NSCLC; assay: DTP human tumour cell line panel, 48 h

`Cc1nc2cc(C(F)(F)F)ccc2[nH]c1=O` and `CSc1c(C(=O)Nc2ccc(C)cc2)c(N)[nH]c(=O)c1C#N` cannot be ordered by TGI: greater than 100 µM for the first, greater than 100 µM for the second.

Compared with `Nc1ncnc2c1ncn2C(=O)NC12CC3CC(CC(C3)C1)C2`, `O=C1CC(c2ccc([N+](=O)[O-])cc2)C2(C(=O)NC(=S)NC2=O)C(c2ccc([N+](=O)[O-])cc2)C1` (stereo unspecified) is lower in TGI: greater than 100 µM for the first, 50.4 µM for the second.

`C(=Nc1ccc(-c2nc3ccccc3s2)cc1)c1ccco1` and `CC(=O)/C(=C/n1c(=S)sc2ccccc21)C(=O)Nc1ccccc1C` cannot be ordered by TGI: greater than 100 µM for the first, greater than 100 µM for the second.

With `N#CSCc1cccc(Nc2cc(=O)[nH]c(=O)[nH]2)c1` the TGI was greater than 100 µM.

test system: PC-3 prostate; assay: DTP human tumour cell line panel, 48 h

`Cc1nc2cc(C(F)(F)F)ccc2[nH]c1=O` and `CSc1c(C(=O)Nc2ccc(C)cc2)c(N)[nH]c(=O)c1C#N` cannot be ordered by TGI: greater than 100 µM for the first, greater than 100 µM for the second.

`Nc1ncnc2c1ncn2C(=O)NC12CC3CC(CC(C3)C1)C2` and `O=C1CC(c2ccc([N+](=O)[O-])cc2)C2(C(=O)NC(=S)NC2=O)C(c2ccc([N+](=O)[O-])cc2)C1` (stereo unspecified) cannot be ordered by TGI: greater than 100 µM for the first, greater than 100 µM for the second.

`C(=Nc1ccc(-c2nc3ccccc3s2)cc1)c1ccco1` and `N#CSCc1cccc(Nc2cc(=O)[nH]c(=O)[nH]2)c1` cannot be ordered by TGI: greater than 100 µM for the first, greater than 100 µM for the second.

test system: UO-31 renal; assay: DTP human tumour cell line panel, 48 h

`Cc1nc2cc(C(F)(F)F)ccc2[nH]c1=O` and `CSc1c(C(=O)Nc2ccc(C)cc2)c(N)[nH]c(=O)c1C#N` cannot be ordered by TGI: greater than 100 µM for the first, greater than 100 µM for the second.

First: Nc1ncnc2c1ncn2C(=O)NC12CC3CC(CC(C3)C1)C2
Second: O=C1CC(c2ccc([N+](=O)[O-])cc2)C2(C(=O)NC(=S)NC2=O)C(c2ccc([N+](=O)[O-])cc2)C1 (stereo unspecified)
The TGI of the first is higher: greater than 100 µM for the first, 63.1 µM for the second.

`C(=Nc1ccc(-c2nc3ccccc3s2)cc1)c1ccco1` and `CC(=O)/C(=C/n1c(=S)sc2ccccc21)C(=O)Nc1ccccc1C` cannot be ordered by TGI: greater than 100 µM for the first, greater than 100 µM for the second.

For `N#CSCc1cccc(Nc2cc(=O)[nH]c(=O)[nH]2)c1`, the TGI was greater than 100 µM.

test system: DU-145 prostate; assay: DTP human tumour cell line panel, 48 h

`Cc1nc2cc(C(F)(F)F)ccc2[nH]c1=O` and `CSc1c(C(=O)Nc2ccc(C)cc2)c(N)[nH]c(=O)c1C#N` cannot be ordered by TGI: greater than 100 µM for the first, greater than 100 µM for the second.

Compared with `Nc1ncnc2c1ncn2C(=O)NC12CC3CC(CC(C3)C1)C2`, `O=C1CC(c2ccc([N+](=O)[O-])cc2)C2(C(=O)NC(=S)NC2=O)C(c2ccc([N+](=O)[O-])cc2)C1` (stereo unspecified) is lower in TGI: greater than 100 µM for the first, 83.3 µM for the second.

`C(=Nc1ccc(-c2nc3ccccc3s2)cc1)c1ccco1` and `CC(=O)/C(=C/n1c(=S)sc2ccccc21)C(=O)Nc1ccccc1C` cannot be ordered by TGI: greater than 100 µM for the first, greater than 100 µM for the second.

test system: NCI-H522 lung; assay: DTP human tumour cell line panel, 48 h

`CSc1c(C(=O)Nc2ccc(C)cc2)c(N)[nH]c(=O)c1C#N` and `N#CSCc1cccc(Nc2cc(=O)[nH]c(=O)[nH]2)c1` cannot be ordered by TGI: greater than 100 µM for the first, greater than 100 µM for the second.

First: C(=Nc1ccc(-c2nc3ccccc3s2)cc1)c1ccco1
Second: O=C1CC(c2ccc([N+](=O)[O-])cc2)C2(C(=O)NC(=S)NC2=O)C(c2ccc([N+](=O)[O-])cc2)C1 (stereo unspecified)
The TGI of the first is higher: greater than 100 µM for the first, 36.4 µM for the second.

test system: OVCAR-5 ovarian; assay: DTP human tumour cell line panel, 48 h

`Cc1nc2cc(C(F)(F)F)ccc2[nH]c1=O` and `CSc1c(C(=O)Nc2ccc(C)cc2)c(N)[nH]c(=O)c1C#N` cannot be ordered by TGI: greater than 100 µM for the first, greater than 100 µM for the second.

First: Nc1ncnc2c1ncn2C(=O)NC12CC3CC(CC(C3)C1)C2
Second: O=C1CC(c2ccc([N+](=O)[O-])cc2)C2(C(=O)NC(=S)NC2=O)C(c2ccc([N+](=O)[O-])cc2)C1 (stereo unspecified)
The TGI of the first is higher: greater than 100 µM for the first, 87.4 µM for the second.

`C(=Nc1ccc(-c2nc3ccccc3s2)cc1)c1ccco1` and `CC(=O)/C(=C/n1c(=S)sc2ccccc21)C(=O)Nc1ccccc1C` cannot be ordered by TGI: greater than 100 µM for the first, greater than 100 µM for the second.

`N#CSCc1cccc(Nc2cc(=O)[nH]c(=O)[nH]2)c1` gave a TGI greater than 100 µM.

test system: MDA-N; assay: DTP human tumour cell line panel, 48 h

`Cc1nc2cc(C(F)(F)F)ccc2[nH]c1=O` and `CSc1c(C(=O)Nc2ccc(C)cc2)c(N)[nH]c(=O)c1C#N` cannot be ordered by TGI: greater than 100 µM for the first, greater than 100 µM for the second.

`Nc1ncnc2c1ncn2C(=O)NC12CC3CC(CC(C3)C1)C2` and `O=C1CC(c2ccc([N+](=O)[O-])cc2)C2(C(=O)NC(=S)NC2=O)C(c2ccc([N+](=O)[O-])cc2)C1` (stereo unspecified) cannot be ordered by TGI: greater than 100 µM for the first, greater than 100 µM for the second.

`C(=Nc1ccc(-c2nc3ccccc3s2)cc1)c1ccco1` and `CC(=O)/C(=C/n1c(=S)sc2ccccc21)C(=O)Nc1ccccc1C` cannot be ordered by TGI: greater than 100 µM for the first, greater than 100 µM for the second.

Molecule `N#CSCc1cccc(Nc2cc(=O)[nH]c(=O)[nH]2)c1` has a TGI greater than 100 µM.

test system: HT29 colon; assay: DTP human tumour cell line panel, 48 h

`Cc1nc2cc(C(F)(F)F)ccc2[nH]c1=O` and `Nc1ncnc2c1ncn2C(=O)NC12CC3CC(CC(C3)C1)C2` cannot be ordered by TGI: greater than 100 µM for the first, greater than 100 µM for the second.
